Here are results for 3 compounds from ChEMBL document CHEMBL1157033, “Developing a complete pharmacology for AMPA receptors: a perspective on subtype-selective ligands” (Bioorg Med Chem, 2010).

Assay [1] addresses T1, Glutamate receptor 2 (Homo sapiens, UniProt P42262). The experiment in a line: Activity at human recombinant GluA2 flip isoform expressed in HEK203 cells assessed as blocked of receptor desensitization.
Assay [2] addresses T1, Glutamate receptor 2. The experiment in a line: Activity at human recombinant GluA2 flop isoform expressed in HEK203 cells assessed as blocked of receptor desensitization.
Assay [3] has as its target T2, Glutamate receptor 1 (Homo sapiens, UniProt P42261). The experiment in a line: Activity at human recombinant GluA1 receptor flip isoform expressed in HEK293 cells assessed as effect on glutamate-induced calcium flux by Fluo-4/AM staining-based fluorescence assay. It counts as cell-based. Background: Calcium assays in cells follow changes in intracellular calcium, usually with a dye or a luminescent sensor.

For assay [4], the target named is T1, Glutamate receptor 2. As to the kind of experiment: Activity at human recombinant GluA2 receptor flip isoform expressed in HEK293 cells assessed as effect on glutamate-induced calcium flux by Fluo-4/AM staining-based fluorescence assay. It counts as cell-based.
In assay [5] the target is T1, Glutamate receptor 2. The experiment in a line: Activity at human recombinant GluA2 receptor flop isoform expressed in HEK293 cells assessed as effect on glutamate-induced calcium flux by Fluo-4/AM staining-based fluorescence assay. In kind it is cell-based.
In assay [6] the target is T3, Glutamate receptor 3 (Homo sapiens, UniProt P42263). As to the kind of experiment: Activity at human recombinant GluA3 receptor flip isoform expressed in HEK293 cells assessed as effect on glutamate-induced calcium flux by Fluo-4/AM staining-based fluorescence assay. In kind it is cell-based.
T3 sequence (P42263 whole entry, canonical isoform): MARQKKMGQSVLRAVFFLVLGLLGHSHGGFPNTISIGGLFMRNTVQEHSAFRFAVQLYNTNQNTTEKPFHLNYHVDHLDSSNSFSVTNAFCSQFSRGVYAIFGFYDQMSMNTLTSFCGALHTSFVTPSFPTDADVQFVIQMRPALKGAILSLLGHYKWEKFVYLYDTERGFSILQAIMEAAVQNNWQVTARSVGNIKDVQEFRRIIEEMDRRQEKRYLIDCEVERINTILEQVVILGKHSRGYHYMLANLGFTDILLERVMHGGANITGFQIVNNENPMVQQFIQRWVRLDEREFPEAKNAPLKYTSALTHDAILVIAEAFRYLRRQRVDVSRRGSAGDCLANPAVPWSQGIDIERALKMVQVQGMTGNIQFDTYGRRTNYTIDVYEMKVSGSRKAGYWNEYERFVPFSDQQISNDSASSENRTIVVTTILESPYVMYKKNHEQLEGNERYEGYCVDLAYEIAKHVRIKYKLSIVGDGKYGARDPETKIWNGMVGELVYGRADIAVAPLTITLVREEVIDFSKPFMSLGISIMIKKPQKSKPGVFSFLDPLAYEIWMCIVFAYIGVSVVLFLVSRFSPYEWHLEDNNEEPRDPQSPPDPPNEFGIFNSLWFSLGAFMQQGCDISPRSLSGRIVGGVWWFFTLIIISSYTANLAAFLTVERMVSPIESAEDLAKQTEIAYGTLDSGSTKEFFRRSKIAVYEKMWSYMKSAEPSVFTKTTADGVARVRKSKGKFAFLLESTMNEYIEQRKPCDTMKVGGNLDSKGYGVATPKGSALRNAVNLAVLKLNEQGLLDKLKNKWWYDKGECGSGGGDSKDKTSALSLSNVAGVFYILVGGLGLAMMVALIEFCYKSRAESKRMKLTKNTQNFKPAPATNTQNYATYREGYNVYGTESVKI
Assay [7] can be described thus: Activity at human recombinant GluA4 receptor flip isoform expressed in HEK293 cells assessed as effect on glutamate-induced calcium flux by Fluo-4/AM staining-based fluorescence assay. In kind it is cell-based.
The target of assay [8] is T2, Glutamate receptor 1. As to the kind of experiment: Activity at recombinant GluA1 receptor flop isoform expressed in Xenopus oocytes assessed as effect of 100 uM kainate-induced current by patch clamp electrophysiological assay. It counts as cell-based, Oocyte.
Assay [9] deals with T4, Glutamate receptor AMPA 1/2 (Homo sapiens, UniProt P42261+P42262). The experiment in a line: Activity at recombinant GluA1A2 receptor flop isoform expressed in Xenopus oocytes assessed as effect of 100 uM kainate-induced current by patch clamp electrophysiological assay. In kind it is cell-based, Oocyte. On the technique in general: The patch-clamp technique gives a direct electrical read-out from membranes.
T4 sequence (P42262 whole entry, canonical isoform): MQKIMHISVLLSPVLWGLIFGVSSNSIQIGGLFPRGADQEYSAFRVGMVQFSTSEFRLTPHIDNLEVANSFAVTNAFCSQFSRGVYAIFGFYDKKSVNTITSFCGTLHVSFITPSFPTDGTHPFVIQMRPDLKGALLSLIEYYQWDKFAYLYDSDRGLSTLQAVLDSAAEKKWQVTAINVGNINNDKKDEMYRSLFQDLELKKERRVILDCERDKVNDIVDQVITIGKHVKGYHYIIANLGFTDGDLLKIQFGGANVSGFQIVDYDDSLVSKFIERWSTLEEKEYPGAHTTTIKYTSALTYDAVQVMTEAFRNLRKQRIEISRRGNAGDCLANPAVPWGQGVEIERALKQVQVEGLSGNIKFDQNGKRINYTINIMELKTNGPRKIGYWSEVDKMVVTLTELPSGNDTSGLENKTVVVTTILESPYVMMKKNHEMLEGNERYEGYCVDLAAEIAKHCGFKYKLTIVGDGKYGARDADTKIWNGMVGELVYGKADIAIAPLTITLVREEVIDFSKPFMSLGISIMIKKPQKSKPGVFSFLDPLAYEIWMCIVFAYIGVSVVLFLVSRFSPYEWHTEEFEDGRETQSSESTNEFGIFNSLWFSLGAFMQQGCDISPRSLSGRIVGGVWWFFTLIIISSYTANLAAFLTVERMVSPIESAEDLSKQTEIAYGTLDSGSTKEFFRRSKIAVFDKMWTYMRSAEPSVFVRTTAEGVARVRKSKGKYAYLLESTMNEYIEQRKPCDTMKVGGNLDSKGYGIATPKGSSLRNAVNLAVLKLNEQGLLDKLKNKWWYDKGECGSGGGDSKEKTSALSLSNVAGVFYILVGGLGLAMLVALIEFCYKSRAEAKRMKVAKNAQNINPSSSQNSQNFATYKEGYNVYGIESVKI
T4 sequence (P42261 whole entry, canonical isoform): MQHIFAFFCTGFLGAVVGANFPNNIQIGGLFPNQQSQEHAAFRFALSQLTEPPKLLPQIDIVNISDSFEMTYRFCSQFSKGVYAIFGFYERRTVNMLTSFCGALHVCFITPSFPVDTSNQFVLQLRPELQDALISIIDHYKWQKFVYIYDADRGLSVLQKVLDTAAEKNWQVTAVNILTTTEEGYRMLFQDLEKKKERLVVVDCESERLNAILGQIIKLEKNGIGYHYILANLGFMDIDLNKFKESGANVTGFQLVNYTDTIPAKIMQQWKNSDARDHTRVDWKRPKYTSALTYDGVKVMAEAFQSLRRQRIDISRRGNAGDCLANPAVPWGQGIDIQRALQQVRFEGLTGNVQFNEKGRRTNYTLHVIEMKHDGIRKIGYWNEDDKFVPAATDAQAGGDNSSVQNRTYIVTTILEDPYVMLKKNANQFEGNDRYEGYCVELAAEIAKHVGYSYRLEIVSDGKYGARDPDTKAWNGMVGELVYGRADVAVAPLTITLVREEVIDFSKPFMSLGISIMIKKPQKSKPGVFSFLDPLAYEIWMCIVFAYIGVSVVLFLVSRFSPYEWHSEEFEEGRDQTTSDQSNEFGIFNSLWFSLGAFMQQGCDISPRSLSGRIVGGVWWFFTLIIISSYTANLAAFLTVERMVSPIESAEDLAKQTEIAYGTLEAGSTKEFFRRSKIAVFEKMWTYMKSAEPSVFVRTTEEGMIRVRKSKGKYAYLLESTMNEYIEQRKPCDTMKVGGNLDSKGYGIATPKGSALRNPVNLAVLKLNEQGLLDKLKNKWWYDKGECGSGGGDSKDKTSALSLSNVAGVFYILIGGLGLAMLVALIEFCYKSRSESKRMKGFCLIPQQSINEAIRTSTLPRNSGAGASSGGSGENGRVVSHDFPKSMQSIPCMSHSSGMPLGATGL

In assay [10] the target is T2, Glutamate receptor 1. In kind it is cell-based, Oocyte.
For assay [11], the target named is T3, Glutamate receptor 3. The experiment in a line: Inhibition of recombinant GluA3 receptor flip isoform expressed in Xenopus oocytes assessed as inhibition of […] uM kainate-induced current by patch clamp electrophysiological assay. In kind it is cell-based, Oocyte.
The nature of assay [12]: Inhibition of recombinant GluA4 receptor flip isoform expressed in Xenopus oocytes assessed as inhibition of […] uM kainate-induced current by patch clamp electrophysiological assay. In kind it is cell-based. The settings on record: Oocyte.
Assay [13] deals with T4, Glutamate receptor AMPA 1/2. It counts as cell-based, Oocyte.
Assay [14] addresses T2, Glutamate receptor 1. It counts as cell-based, Oocyte. This is another data set of the same source.
Assay [15] concerns the target T3, Glutamate receptor 3. As to the kind of experiment: Inhibition of GluA3 receptor expressed in Xenopus oocytes assessed as inhibition of […] uM kainate-induced current by patch clamp electrophysiological assay. In kind it is cell-based, Oocyte.
The target of the next assay is Glutamate receptor 4 (Homo sapiens, UniProt P48058). As to the kind of experiment: Inhibition of GluA4 receptor expressed in Xenopus oocytes assessed as inhibition of […] uM kainate-induced current by patch clamp electrophysiological assay. In kind it is cell-based, Oocyte.
Sequence of Glutamate receptor 4 (P48058 whole entry): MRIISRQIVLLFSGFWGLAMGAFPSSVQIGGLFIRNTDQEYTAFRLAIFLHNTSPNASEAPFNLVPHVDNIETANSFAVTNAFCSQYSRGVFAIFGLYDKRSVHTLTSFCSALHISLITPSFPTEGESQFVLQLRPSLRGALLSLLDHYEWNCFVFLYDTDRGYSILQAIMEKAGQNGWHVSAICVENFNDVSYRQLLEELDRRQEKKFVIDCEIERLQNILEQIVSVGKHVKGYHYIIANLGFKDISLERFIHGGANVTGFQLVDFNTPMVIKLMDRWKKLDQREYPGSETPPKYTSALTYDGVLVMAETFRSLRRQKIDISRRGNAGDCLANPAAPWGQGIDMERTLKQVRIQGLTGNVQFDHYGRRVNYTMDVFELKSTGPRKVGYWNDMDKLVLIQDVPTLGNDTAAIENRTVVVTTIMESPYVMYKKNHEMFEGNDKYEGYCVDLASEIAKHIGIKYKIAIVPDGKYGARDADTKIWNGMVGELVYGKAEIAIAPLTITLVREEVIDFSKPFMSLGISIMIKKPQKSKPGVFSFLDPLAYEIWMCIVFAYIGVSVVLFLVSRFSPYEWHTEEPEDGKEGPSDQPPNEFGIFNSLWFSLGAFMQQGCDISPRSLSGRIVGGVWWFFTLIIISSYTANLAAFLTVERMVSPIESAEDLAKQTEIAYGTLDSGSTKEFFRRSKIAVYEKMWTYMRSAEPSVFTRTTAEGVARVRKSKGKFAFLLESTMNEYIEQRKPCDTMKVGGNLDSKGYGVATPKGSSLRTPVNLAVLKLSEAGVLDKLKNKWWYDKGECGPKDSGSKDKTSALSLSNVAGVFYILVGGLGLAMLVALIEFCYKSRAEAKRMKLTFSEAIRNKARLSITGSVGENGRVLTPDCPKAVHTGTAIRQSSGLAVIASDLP
For assay [16], the target named is Glutamate receptor 1 (Rattus norvegicus, UniProt P19490). In kind it is cell-based, Oocyte.
Sequence of Glutamate receptor 1 (Rattus norvegicus, UniProt P19490) (P19490 whole entry): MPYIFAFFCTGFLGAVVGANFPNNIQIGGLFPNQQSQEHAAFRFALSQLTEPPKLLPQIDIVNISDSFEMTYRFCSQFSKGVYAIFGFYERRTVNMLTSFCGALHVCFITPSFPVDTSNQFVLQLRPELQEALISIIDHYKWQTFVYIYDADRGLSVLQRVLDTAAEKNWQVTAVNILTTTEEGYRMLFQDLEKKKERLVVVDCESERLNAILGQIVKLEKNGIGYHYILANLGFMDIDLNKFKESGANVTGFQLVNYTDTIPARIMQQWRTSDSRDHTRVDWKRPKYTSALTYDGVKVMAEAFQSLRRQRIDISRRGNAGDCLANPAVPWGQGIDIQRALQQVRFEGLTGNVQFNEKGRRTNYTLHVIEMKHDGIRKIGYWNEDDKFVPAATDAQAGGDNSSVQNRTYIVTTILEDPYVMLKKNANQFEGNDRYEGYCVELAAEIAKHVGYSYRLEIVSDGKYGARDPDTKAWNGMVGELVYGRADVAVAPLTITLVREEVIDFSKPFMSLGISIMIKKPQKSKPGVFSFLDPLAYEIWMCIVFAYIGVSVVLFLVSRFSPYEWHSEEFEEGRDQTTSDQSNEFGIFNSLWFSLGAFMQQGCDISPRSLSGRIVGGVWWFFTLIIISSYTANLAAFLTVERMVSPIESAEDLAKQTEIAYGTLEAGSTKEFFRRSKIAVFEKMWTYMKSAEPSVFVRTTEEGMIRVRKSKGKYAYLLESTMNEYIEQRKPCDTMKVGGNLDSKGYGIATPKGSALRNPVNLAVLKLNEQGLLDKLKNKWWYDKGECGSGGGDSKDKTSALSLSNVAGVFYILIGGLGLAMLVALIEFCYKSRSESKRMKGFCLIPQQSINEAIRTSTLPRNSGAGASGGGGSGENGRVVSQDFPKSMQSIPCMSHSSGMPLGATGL
In assay [17] the target is Glutamate receptor AMPA 1/2 (Rattus norvegicus, UniProt P19490+P19491). It counts as cell-based, Oocyte.
Sequence of Glutamate receptor AMPA 1/2 (Rattus norvegicus, UniProt P19490+P19491) (P19491 whole entry, canonical isoform): as the sequence (P42262 whole entry, canonical isoform) above, with M191T, T291A, R764G, A852P counted along it
Sequence of Glutamate receptor AMPA 1/2 (Rattus norvegicus, UniProt P19490+P19491) (P19490 whole entry, canonical isoform): as the sequence (P19490 whole entry) above
The target of assay [18] is T2, Glutamate receptor 1. The experiment in a line: Inhibition of recombinant GluA1 receptor flip isoform expressed in Xenopus oocytes assessed as inhibition of […] uM glutamate-induced current. It counts as cell-based, Oocyte.
In assay [19] the target is T4, Glutamate receptor AMPA 1/2. The experiment in a line: Inhibition of recombinant GluA1A2 receptor flip isoform expressed in Xenopus oocytes assessed as inhibition of […] uM glutamate-induced current. In kind it is cell-based, Oocyte.
For assay [20], the target named is T2, Glutamate receptor 1. The settings on record: Oocyte; at 100 µM.
Assay [21] has as its target T1, Glutamate receptor 2. The settings on record: Oocyte; at 100 µM.
Assay [22] concerns the target T3, Glutamate receptor 3. The settings on record: Oocyte; at 100 µM.
The target in assay [23] is Glutamate receptor AMPA 1/2 (Homo sapiens) (UniProt P42262+P42261). Conditions: Oocyte; at 100 µM.
Assay [24] has as its target Glutamate receptor AMPA 2/3 (Homo sapiens) (UniProt P42263+P42262). Conditions: Oocyte; at 100 µM.

One may read the EC50 as the concentration that produces a half-maximal response. For orientation: IC50 means the concentration at which inhibition is half-maximal. A word on the Ki: it is a measure of affinity in units of concentration, obtained from inhibition or displacement. One may read the inhibition as the drop in the measured response relative to a control, in per cent.

T2 sequence (P42261 whole entry, canonical isoform): as the sequence (P42261 whole entry, canonical isoform) above
T1 sequence (P42262 whole entry, canonical isoform): as the sequence (P42262 whole entry, canonical isoform) above

For the compound `CC(CNS(=O)(=O)C(C)C)C1CCC(c2ccc(C#N)cc2)CC1` (stereo not given), the EC50 was found to be 15 µM at Glutamate receptor 2 [1]; 1.44 µM on Glutamate receptor 2 [2]; 5.65 µM on Glutamate receptor 1 [3]; 0.15 µM at Glutamate receptor 2 [4]; 1.44 µM on Glutamate receptor 2 [5]; 1.66 µM on Glutamate receptor 3 [6]. Further, in [7], the EC50 came out at 0.21 µM.

As for `N=C(N)NCCC[C@H](N)C(=O)NCCCNCCCNCCCCCNC(=O)[C@H](CC(N)=O)NC(=O)Cc1ccc(O)cc1O`, the IC50 amounted to 3.4 µM on Glutamate receptor 1 [8]; 300 µM in [9]; 0.35 µM on Glutamate receptor 1 [10]; 0.23 µM at Glutamate receptor 3 [11]; 0.43 µM in [12]; 5.5 µM in assay [13]. The IC50 worked out at 0.35 µM against Glutamate receptor 1 [14]; 0.23 µM at Glutamate receptor 3 [15]; 0.43 µM at Glutamate receptor 4; 3.4 µM against Glutamate receptor 1 [16]; 300 µM in assay [17].

As to `CCCC(=O)N[C@@H](Cc1ccc(O)cc1)C(=O)NCCCCCCCNCCCCN`, the results for the Ki (on Glutamate receptor 1 [18]; in [19]) were 0.168 µM and 1.6 µM, respectively. Besides, the inhibition at Glutamate receptor 1 [20] amounted to 100%; against Glutamate receptor 2 [21], 2.1%; against Glutamate receptor 3 [22] it was 100%; in assay [23], 84.3%; in assay [24], 2.6%.
